Four compounds from patent publication US10723726B2, “Solid forms of (Z)-4-(5-((3-benzyl-4-oxo-2-thioxothiazolidin-5-ylidene)methyl)furan-2-yl)benzoic acid” (GB006, INC., priority 2015, dated 2020) can be followed below.

“Also recorded” adds a separate entry of the source. Like-named read-outs stand apart in the source and are kept apart here.

In general, bioavailability refers to dose-corrected exposure relative to a reference, in per cent. The low end stands for poor availability, the high end for good availability. The clearance is the volume of plasma or blood freed of the substance per unit of time. The low end stands for a low capacity for elimination, the high end for a high capacity for elimination. One may read the AUC(0-inf) as the area under the concentration-time curve extrapolated to infinity. Read a high AUC(0-inf) as more exposure. One may read the Cmax as the highest concentration seen after dosing. The half-life is the time needed for the level to fall by half in the phase considered. Low readings indicate fast loss, high ones slow loss. A word on the Tmax: it is the time from dosing to the highest level. In general, Vss refers to a proportionality between amount in the body and measured concentration, not a real space. Low values mean confinement near the circulation, high ones extensive tissue distribution. As a reminder, the MRT is a mean duration of stay, worked out from the concentration-time curve. The Vd is the apparent volume that relates the amount in the body to the concentration in plasma or blood. A lower Vd goes with little distribution into tissue. The term AUC denotes the area under the concentration-time curve, a measure of exposure. Low readings indicate low exposure, high ones high exposure.

Data set [1] can be described thus: in vivo. Conditions: male, dog; for AUC0-t: AUC0-12 h. The method, then: The PO (2 mg/kg) dose solution of micronized LA1 was prepared in 0.1% Tween-80 0.5% (w/v) and methyl cellulose in water.
The objective of the study was to investigate the preclinical pharmacokinetic profile of LA1 (micronized powder) in Beagle dog. To delineate the plasma concentration vs. time curve and characterize the relevant pharmacokinetic parameters to generate data on the PK properties viz., bioavailability, half-life (b1/2), volume of distribution, Cmax, Tmax, AUC and elimination rate constant of LA1 in Beagle dog.
LA1 was a coarse material which was micronized using laboratory scale ball mill. […] The micronized LA1 was recovered, weighed and stored in glass container at room temperature. For intravenous drug administration, LA1 excipient compatibility assay for dosing in dogs were carried out.
In brief, a known amount of LA1 was loaded to a cylindrical capped container made of stainless steel followed by addition of stainless steel balls. The ball mills were rotated on their axis for total of 60 minutes (6 cycles X 10 minutes). The micronized LA1 was recovered, weighed and stored in glass bottle at room temperature.
Test system: Healthy Beagle dog weighing 10-12 kg (age 10 months), males were used for the study. Crossover design was adopted for the experiments wherein 02 dogs were used in the study for oral and intravenous administration. Both the animals were housed stainless steel cage provided with a hopper to hold pellet feed and a separate water hopper. Temperature and humidity was maintained at 22±3° C. and 40-70%, respectively. The illumination was controlled to give a sequence of 12 h light and 12 h dark cycle. All the animals were adapted to the experimental conditions for at least 5 days prior to dosing. All animals were provided with Pedigree™ standard pellet feed, except for 10 to 12 h before treatment and 4 h after the drug administration. Water was provided ad libidum.
Formulation and drug administration: Exactly 90 mg of the test item LA1 (micronized powder) was weighed and transferred to a mortar and briefly triturated with pestle. Small volume of vehicle [0.5% (w/v) Carboxy methyl cellulose with 0.1% Tween-80] in water was then added slowly with continuous trituration until a uniform suspension was obtained. The content was then transferred into the measuring cylinder. The mortar was rinsed till the complete transfer of test item into the measuring cylinder was ensured. The final volume was then made up to 225 mL with vehicle to get a uniform suspension with desired concentration of 0.4 mg/mL. Dosing formulations were given by oral gavage at a dose volume not exceeding 5 mL/kg.
Intravenous drug formulation: Hemolysis assay using dog whole blood was employed to assess the damage of red blood cells for selection of excipient for intravenous dosing. […] Exactly 22.5 mg of the test item (micronized powder) was weighed into a graduated tube. 2.25 mL of DMSO was added drop wise and mixed by vortex. Then, 40.50 mL of Polyethylene glycol 400 (PEG-400) was added in two to three fragments and vortex intermittently. Then 2.25 mL Ethanol was added drop wise and vortex to get clear solution. The formulation was subjected to ultra-sonication for 5 minutes.
Sample collection: Serial method was used for blood sampling. Blood samples were collected as mentioned in the study design section (7). The blood sample (−1.5 mL) was collected from saphenous vein into labeled tubes, containing 2% w/v K2EDTA solution, as an anticoagulant.

The conditions of data set [2]: male, Sprague-Dawley, in vivo.
Protocol: (§1) In a second experiment, the dose solution was prepared in Tween-80 (0.02%) and 0.5% methyl cellulose in Milli-Q water. IP (2 mg/kg) and IV (1 mg/kg) dose solutions were prepared in a 5% DMSO and 95% PEG-200.
(§2) The PO (2 mg/kg) dose solution was prepared in Tween-80 (0.02%) and 0.5% methyl cellulose in Milli-Q water. The IV (1 mg/kg) dose solution was prepared in a solution of 5% DMSO and 95% PEG-200.
(§3) The routes of administration were namely PO (gavage), IP (bolus) and IV (bolus through tail vein). A total of four SD male rats were used aged between 5-6 weeks. The feeding regimen included 12 h fasting and the feed was provided 2 hrs after the dosage inoculation and water was provided ad libidum. The blood collection schedule for PO/IP was at 0.25, 0.5, 1, 2, 4, 8, 10 and 24 h, and for IV it was at 0.12, 0.25, 0.5, 1, 2, 4, 8 and 24 h. For PO dosage, tween-80 (0.02%) and 0.5% methyl cellulose prepared in milli-Q water were used as vehicles; for IP and IV dosage 5% DMSO and 95% PEG-200 were used as vehicles.
(§4) Stock solution (178 μg/mL) in methanol was further diluted using methanol: water (80:20, v/v) to obtain working solutions in the range of 10.4 to 20745 ng/mL.
(§5) 50 μL of sample was aliquoted in to pre-labeled vials. To it was added 200 μL of 10% tetrahydrofuran containing IS (100 ng/mL; tolbutamide) and mixed well, vortexed for 5 min followed by centrifugation for 5 min at 14000 rpm for at 4° C. Supernatant was separated and 5 μL of same was injected on LC-MS/MS.
(§6) Data Analysis: Individual concentration-time data were analyzed using WinNonlin (Version 5.3) by non-compartmental analysis (NCA) method.
(§7) The routes of administration were namely PO (gavage) and IV (bolus through tail vein). A total of four SD male rats were used aged between 5-6 weeks. The feeding regimen included 12 h fasting and the feed was provided 2 hrs after the dosage inoculation and water was provided ad libitum. The blood collection schedule for PO was at 0.25, 0.5, 1, 2, 4, 8, 10 and 24 h, and for IV it was at 0.12, 0.25, 0.5, 1, 2, 4, 8 and 24 h. For PO dosage, tween-80 (0.02%) and 0.5% methyl cellulose prepared in milli-Q water were used as vehicles; for IV dosage 10% DMSO and 90% PEG-200 were used as vehicles.
Data set [3] is described as follows: in vivo. Conditions: male, Sprague-Dawley, rat, po, 2 mg/kg.
Protocol: as §1, §2, §3, §4, §5, §6, §7
Data set [4] is described as follows: Humidity stress at 40° C./75% RH. It is filed as physicochemical. The settings on record: 5-6 days. As for the experimental part:
The larger vials were capped, sealed with Parafilm and placed inside an oven at 40° C. for up to 6 days. Salts were then removed from these conditions and changes observed (e.g. color, deliquescence etc.) before being analyzed for weight change and by XRPD. Samples were examined visually after stressing, form composition confirmed by XRPD analysis and weight change recorded (Table 7).

The nature of data set [5]: Aqueous solubility by equilibration, HPLC analysis. The settings on record: for Appearance / Soln pH: after slurrying in water 4-5 days; for HPLC purity (%): after slurrying in water 4-5 days (chemical stability). It is filed as physicochemical. As for the experimental part: An aliquot of the UHQ water test solvent (1 mL) was added to an accurately weighed sample of the LA1 salts and agitated at ambient temperature for a period of 4 days. A sample was withdrawn, filtered through a […], and analyzed by HPLC. HPLC was used to determine aqueous equilibrium solubility at ambient temperature. […] Samples were slurried in water for 4-5 days before analysis.

The mark [6] stands for this setting: beagle, iv, 0.5 mg/kg, Plasma concentration.
[7] abbreviates: beagle, po, 0.5 mg/kg, Plasma concentration.

Take `O=C(O)c1ccc(-c2ccc(/C=C3\SC(=S)N(Cc4ccccc4)C3=O)o2)cc1` [LA1 (micronized)]: the concentration at 12 h in “in vivo [1]” (Beagle, iv, 0.5 mg/kg, Plasma concentration) came to 7.93 ng/mL; in “in vivo [1]” (setting [7]) it was 37.5 ng/mL. Besides, the bioavailability in “in vivo [1]” (beagle, Absolute oral bioavailability) was found to be 50.6%; in the data set “in vivo [1]” (beagle, Dog F % (absolute oral bioavailability)) it was 50%; in the data set “in vivo [1]” (beagle, po, 0.5 mg/kg, Absolute Bioavailability F %) it was 50.6%; in the data set “in vivo [3]” (Rat F %), 23%. The clearance in “in vivo [1]” (beagle, Dog Cl (ml/min/kg)) amounted to 2.1 mL/min/kg. Also, the AUC0-t turned out to be 1330 ng·h/mL in the data set “in vivo [1]” (beagle, iv, 0.5 mg/kg); 2570 ng·h/mL in “in vivo [1]” (beagle, po, 3 mg/kg); 715 ng·h/mL in data set [2] (rat, iv, 1 mg/kg); 319 ng·h/mL in data set [2] (rat, po, 2 mg/kg). For the same compound, the total exposure AUC(0-inf) in the data set “in vivo [1]” (beagle, iv, 0.5 mg/kg, AUC0-inf) is 1350 ng·h/mL; in “in vivo [1]” (beagle, iv, 0.5 mg/kg, AUCinf), 1350 ng·h/mL; in the data set “in vivo [1]” (beagle, po, 2 mg/kg, AUCinf), 2690 ng·h/mL; in “in vivo [1]” (beagle, po, 3 mg/kg, AUC0-inf), 2690 ng·h/mL. For the same compound, the C0 is 1330 ng/mL in “in vivo [1]” (beagle, iv, 0.5 mg/kg, C0) and 1025 ng/mL in data set [2] (rat, iv, 1 mg/kg). The Cmax came to 2040 ng/mL in “in vivo [1]” (beagle, iv, 0.5 mg/kg, Co/Cmax); 685 ng/mL in “in vivo [1]” (beagle, po, 2 mg/kg, Cmax); 685 ng/mL in “in vivo [1]” (beagle, po, 3 mg/kg, Co/Cmax). In the data set “in vivo [1]” (setting [6]), this compound yielded a concentration at 0.05 h of 1570 ng/mL. Also, the concentration at 0.1 h in “in vivo [1]” (setting [6]) worked out at 897 ng/mL. For the same compound, the concentration at 0.25 h in the data set “in vivo [1]” (setting [6]) came to 717 ng/mL. In the data set “in vivo [1]” (setting [6]), this compound came in with a concentration at 0.5 h of 505 ng/mL. This compound had a concentration at 1 h in the data set “in vivo [1]” (setting [6]) of 405 ng/mL. For the same compound, the concentration at 4 h in the data set “in vivo [1]” (setting [7]) was determined as 660 ng/mL. The concentration at 6 h in the data set “in vivo [1]” (setting [7]) amounted to 211 ng/mL. The compound also came in with a concentration at 8 h in the data set “in vivo [1]” (setting [7]) of 118 ng/mL. The half-life is 2.11 h in the data set “in vivo [1]” (beagle, po, 2 mg/kg); 2.11 h in the data set “in vivo [1]” (beagle, po, 3 mg/kg); 1.1 h in “in vivo [3]” (t1/2 (hr)). Further, the Tmax in the data set “in vivo [1]” (beagle, po, 3 mg/kg) was 4 h; in data set [2] (rat, po, 2 mg/kg), 0.88 h. For the same compound, the “Rat Cl” value in data set [2] was 23.4 mL/min/kg. Also, the “Vss” value in data set [2] (rat) is given as 2.14 L/kg. For the same compound, the “AUC0-∞” value was determined as 729 ng·h/mL in data set [2] (rat, iv, 1 mg/kg) and 336 ng·h/mL in data set [2] (rat, po, 2 mg/kg). The MRT in data set [2] (rat, iv, 1 mg/kg) came to 1.47 h; in “in vivo [3]” (MRT (hr)), 2.04 h. Also, the Tlast in data set [2] (rat, iv, 1 mg/kg) stood at 12.0 h; in data set [2] (rat, po, 2 mg/kg), 6.50 h. Moreover, in data set [2] (rat, iv, 1 mg/kg), the Vd was found to be 2.63 L/kg. The AUC in “in vivo [3]” (AUC (with PO bioavailability)) and in “in vivo [3]” (AUC in mM*hr) was 0.76 µM·h each time.
Turning to `C1CNCCN1` [piperazine], in data set [4], the “Weight gain (%)” value is −5.5% and the XRPD after stressing result is “phase change; also recorded: New pattern (R)”. In data set [5], the Appearance result is on record as “No change”, the “Soln pH” value was determined as 8 and the “HPLC purity (%)” value amounted to 5.31%.
As for `NC(CO)(CO)CO` [tromethamine], in data set [4], the XRPD after stressing entry is “phase change; also recorded: New pattern (S)”. For the same compound, in data set [5], the Appearance result is “Yellow ppt seen”, the “Soln pH” value is 8 and the “HPLC purity (%)” value came out at 89.7%. Besides, the “physical stability in water” value in data set [5] (slurrying 4-5 days, XRPD) is recorded as “not physically stable in water”.
On to `[Ca]` [calcium], for which, in data set [4], the “Weight gain (%)” value was 1.7% and the XRPD after stressing result is reported as “More disordered”. Moreover, in data set [5], the Appearance result is given as “No change”, the “Soln pH” value was found to be 7 and the “HPLC purity (%)” value came to 5.58%.
